Measured values from PubChem BioAssay AID720587 (Broad Institute, 2013).
Values joined by “and” are separate entries in the source; they are usually repeats but may differ in a detail not shown here. Equal entries are not always repeated.

What follows are compounds tested on A673 Ewing sarcoma viability, CellTiter-Glo ATP luminescence, 72 h (assay: EWS/Fli1-dependent A673 cell killing, confirmation, CellTiter-Glo luminescence, cherry-pick retest (AID 720587)).

| SMILES | AC35 |
| --- | --- |
| CN1C2CCC1/C(=C/c1ccccn1)C(=O)/C2=C\c1ccccn1 | 0.362 µM |
| COc1ccccc1-c1ccc(OCCCN2CCC(C(O)(c3ccccc3)c3ccccc3)CC2)cc1 | 9.43 µM |
| Cc1cccc(/C=N/Nc2ccc3ccccc3n2)c1 | 18.9 µM |
| COc1ccc(S(=O)(=O)Nc2cccc3c2O[C@H](CN(C)Cc2ccc(C(=O)Nc4ccccc4N)cc2)[C@H](C)CN([C@@H](C)CO)C3=O)cc1 | 5.46 µM |
| O=C(Nc1ccccc1F)N1CCCCN2[C@H](CO)[C@H](c3ccc(/C=C/c4ccccc4)cc3)[C@H]2C1 | 3.64 µM |
| Cc1cc(C)c2sc(NNC(=O)c3ccc(S(=O)(=O)N4CCc5ccccc5C4)cc3)nc2c1 | 1.19 µM |
| COC(=O)C[C@@H]1CC[C@@H]2[C@@H](COc3ccc(NC(=O)Nc4cccc(Cl)c4)cc3C(=O)N2C)O1 | 10.3 µM |
| Cn1ccc2cc(-c3ccc4ncnc(NCc5cccs5)c4c3)ccc21 | 4.58 µM |
| COC(=O)C[C@@H]1CC[C@H]2[C@H](COc3ccc(NC(=O)Nc4cc(C)cc(C)c4)cc3C(=O)N2C)O1 | 22.2 µM |
| C[C@H](CO)N1C[C@H](C)[C@H](CN(C)Cc2ccc(C(=O)Nc3ccccc3N)cc2)Oc2ccc(NC(=O)C3CC3)cc2CC1=O | 7.86 µM |
| Nc1cc2c(cc1Br)[nH]c(=O)c1ccccc12 | 16.6 µM |
| COC(=O)C[C@H]1CC[C@H]2[C@H](COc3ccc(NC(=O)Nc4cccc(Cl)c4)cc3C(=O)N2C)O1 | 13.6 µM |
| COC1C(O)C(C)OC(OC2C(Oc3cccc4c(O)c5c(=O)oc6ccc(C)c7c(=O)oc(c34)c5c67)OC(C)C(O)C2O)C1O (stereo unspecified) | 6.33 µM |
| COC(=O)C[C@@H]1CC[C@@H]2[C@H](COc3ccc(NC(=O)Nc4cccc(C#N)c4)cc3C(=O)N2C)O1 | 12 µM |
| C[C@@H]1CN([C@H](C)CO)C(=O)Cc2cc(N(C)C)ccc2O[C@H]1CN(C)Cc1ccc(C(=O)Nc2ccccc2N)cc1 | 12.7 µM |
| CCOc1ccc(N=Nc2ccc(O)c3ncccc23)cc1 | 0.5 µM |
| C(=N\Nc1nc2ccccc2s1)/c1ccccn1 | 0.696 µM |
| C[C@@H]1CN([C@H](C)CO)C(=O)Cc2cc(NC(=O)CCCCCC(=O)Nc3ccccc3N)ccc2O[C@@H]1CN(C)CC1CCCCC1 | 13.4 µM |
| CCCCCCCCCCCCCCCCCCNc1ccn(C2OC(COP(=O)(O)OCC3OC(n4cc(F)c(=O)[nH]c4=O)CC3O)C(O)C2O)c(=O)n1 (stereo unspecified) | 0.137 µM |
| COCC(=O)Nc1ccc2c(c1)[C@@H]1C[C@@H](CC(=O)NCc3ccc(-c4ccccc4)cc3)O[C@@H](CO)[C@@H]1O2 | 12.7 µM |
| C=C1C(=O)OC2C1CCC(C)C1C=CC(=O)C12C (stereo unspecified) | 7.41 µM |
| CCn1c(/C=N/NC(=O)c2ccc(OC)cc2)nc2ccccc21 | 5.62 µM |

| SMILES | AC35 |
| --- | --- |
| CN(C)CC1CCC/C(=C\c2ccc(OC(=O)c3ccc(Cl)cc3)cc2)C1=O (stereo unspecified) | 0.771 µM |
| COC(=O)C[C@@H]1CC[C@@H]2[C@H](COc3ccc(NC(=O)c4ccc(F)c(F)c4)cc3C(=O)N2C)O1 | 19.7 µM |
| Cc1ccc(S(=O)(=O)Nc2ccc3c(c2)C(=O)N([C@@H](C)CO)C[C@@H](C)[C@H](CN(C)Cc2ccc(C(F)(F)F)cc2)OCCCC[C@H](C)O3)cc1 | 12.1 µM |
| CC(C)Oc1ccc(Br)cc1C(=O)N/N=C/c1c[nH]c2ccccc12 | 22.6 µM |
| C=CCOc1ccccc1C(=O)/C=C1/C(=O)Nc2ccccc21 | 9.62 µM |
| O=C(Nc1ccc(F)cc1)N1CCCCN2[C@@H](CO)[C@H](c3ccc(C4=CCCCC4)cc3)[C@@H]2C1 | 10.2 µM |
| CC(=O)OC1CC(OC2C(O)CC(OC3C(O)CC(OC4CCC5(C)C(CCC6C5CC(O)C5(C)C(C7=CC(=O)OC7)CCC65O)C4)OC3C)OC2C)OC(C)C1OC1OC(CO)C(O)C(O)C1O (stereo unspecified) | 0.244 µM |
| C[C@@H]1CN([C@@H](C)CO)C(=O)c2cc(N(C)C)ccc2O[C@H]1CN(C)Cc1ccc(C(=O)Nc2ccccc2N)cc1 | 13.2 µM |
| C[C@H]1CN([C@@H](C)CO)C(=O)Cc2cc(NC(=O)CCCCCC(=O)Nc3ccccc3N)ccc2O[C@H]1CN(C)Cc1ccc(Cl)c(Cl)c1 | 10.2 µM |
| COC(=O)CC1(C(=O)OC)Oc2ccc(Br)cc2C(=O)N1c1cccc(Cl)c1Cl (stereo unspecified) | 14.2 µM |
| O=C1c2ccc3c4c(ccc(c24)C(=O)N1c1cccc(O)c1)C(=O)N(c1cccc(O)c1)C3=O | 2.47 µM |
| CCN1C/C(=C/c2ccc(N3CCOCC3)cc2)C(=O)/C(=C/c2ccc(N3CCOCC3)cc2)C1 | 3.68 µM |
| O=c1[nH]c(=O)n(C2C[C@H](O)[C@@H](CO)O2)cc1C(F)(F)F (stereo partly specified) | 3.17 µM |
| O=C1NC(=O)N(Cc2ccc(F)cc2)C(=O)/C1=C\C=C\c1ccco1 | 5.3 µM |
| CC1=NN(c2ccccc2)C(=O)/C1=C\C=C\c1ccccc1 | 3.99 µM |
| CN(C[C@H]1N[C@@H](CO)[C@@H]1c1ccc(C2=CCCC2)cc1)C(=O)c1cccc(F)c1 | 1.83 µM |
| COC(=O)c1ccccc1-c1c2ccc(=N)cc-2oc2cc(N)ccc12 | 3.64 µM |
| C[C@H]1CN([C@@H](C)CO)S(=O)(=O)c2ccc(C#CC(C)(C)O)cc2O[C@@H]1CN(C)Cc1ccc(-c2ccccc2)cc1 | 0.656 µM |
| CN(C)c1ccc2c(c1)[C@@H]1C[C@@H](CC(=O)NCc3ccc(Oc4ccccc4)cc3)O[C@H](CO)[C@@H]1O2 | 12.8 µM |
| COc1ccc(S(=O)(=O)N2CCCc3nc(-c4ccc(F)cc4)ccc32)cc1 | 5.35 µM |
| CCCCCCN(C(=O)CCCCCN1C(=O)NC(c2ccc(Cl)cc2)C(C(=O)OCc2ccccc2)=C1C)C(C(=O)NCCCC)c1ccc(OCC(=O)OC)c(C(=O)OC)c1 (stereo unspecified) | 10.8 µM |
| Cc1cccc(CN2C(=O)/C(=C\c3ccc(C(=O)NCCCN4CCN(C)CC4)cc3)Oc3ccccc32)c1 | 12.3 µM |

| SMILES | AC35 |
| --- | --- |
| COC(=O)C[C@@H]1CC[C@@H]2[C@H](COc3ccc(NC(=O)c4ccc(C(F)(F)F)cc4)cc3C(=O)N2C)O1 | 10.5 µM |
| CN(Cc1cnc2nc(N)nc(N)c2n1)c1ccc(C(=O)N[C@@H](CCC(=O)O)C(=O)O)cc1 | 0.0191 µM and 0.018 µM |
| COc1ccc(C(C)(O)c2nc(-c3cccc(F)c3)cs2)cc1 (stereo unspecified) | 9.33 µM |
| C[C@@H]1CN([C@@H](C)CO)C(=O)c2cc(NC(=O)c3ccccc3)ccc2O[C@@H](C)CCCCO[C@H]1CN(C)C(=O)Nc1cccc2ccccc12 | 0.62 µM |
| Cc1ccc2nc(-c3ccccc3)nn2c1 | 13.8 µM |
| O=C(Nc1ccc(Br)cc1)c1ccc(F)c(S(=O)(=O)N2CCN(c3ccccn3)CC2)c1 | 9.42 µM |
| C[C@]12CC[C@H]3[C@@H](CC[C@]4(O)C[C@@H](O)CC[C@]34C=O)[C@@]1(O)CC[C@@H]2C1=CC(=O)OC1 | 0.641 µM |
| Cc1cc(C)cc(C(=O)NC(=S)Nc2ccc(Cc3ccncc3)cc2)c1 | 14.2 µM |
| CCCCC[C@H](C)N1C[C@H](COCc2ccccc2)Oc2cc(N3CC[C@@H](N(C)C)C3)ccc2S1(=O)=O | 11.7 µM |
| C[C@@H]1CN([C@@H](C)CO)C(=O)c2cccc(NC(=O)Nc3cccc4ccccc34)c2O[C@@H]1CN(C)Cc1ccc(C(=O)Nc2ccccc2N)cc1 | 14.8 µM |
| CCCCNC(=O)C(c1ccc(OCC(=O)OC)c(C(=O)OC)c1)N(CCOC)C(=O)CCCCCN1C(=O)NC(c2ccc(-c3ccccc3)cc2)C(C(=O)OCc2ccccc2)=C1C (stereo unspecified) | 7.63 µM |
| CN1C(=O)c2cc(NC(=O)c3ccc(Cl)cc3)ccc2OC[C@@H]2O[C@@H](CC(=O)NCc3cccc(F)c3)CC[C@H]21 | 5.42 µM |
| O=C1NC(=S)NC(=O)C1=Cc1cccn1-c1ccc(O)cc1 | 17.7 µM |
| CN1c2ccc(-c3ccc(C#N)cc3)cc2[C@H]2[C@H](CCN2S(=O)(=O)c2cccc(F)c2)[C@H]1CO | 3.45 µM |
| C=C(C(=O)c1ccccc1)C(C(=C)C(=O)c1ccccc1)c1ccc(OC)cc1 | 4.04 µM |
| Cc1ccc2c(=O)n3c(nc2c1)C(Cc1ccc(O)cc1)NC(=O)c1cc2ccccc2cc1-3 (stereo unspecified) | 7.13 µM |
| COc1ccc(Cn2cc3c(-c4ccc(F)cc4)nnc-3c3cc(OC)c(OC)cc32)cc1 | 4.86 µM |
| CCOc1cc2[nH]c(=S)n(Cc3ccc(C(=O)N4CCN(C)CC4)cc3)c(=O)c2cc1OCC | 19.9 µM |
| CCOc1ccc2nc(NC3=NC(c4ccc(OC)cc4)CC(=O)N3)nc(C)c2c1 (stereo unspecified) | 12.1 µM |
| COc1ccc(CCCNC(=O)C2Cc3c(-c4ccc5c(c4)OCO5)ccnc3O2)cc1 (stereo unspecified) | 15.8 µM |
| C[C@@H]1CN([C@@H](C)CO)C(=O)Cc2cc(N(C)C)ccc2O[C@H]1CN(C)Cc1ccc(C(=O)Nc2ccccc2N)cc1 | 8.7 µM |
| O=c1[nH]c(=O)n([C@H]2C[C@H](O)[C@@H](CO)O2)cc1F | 0.0545 µM |

| SMILES | AC35 |
| --- | --- |
| Cc1nn(Cc2ccccc2Cl)c2sc(C(=O)Nc3ccccc3N3CCOCC3)cc12 | 13.5 µM |
| CC(C)(C)c1ccc(Oc2ccc(N)cn2)cc1 | 5.13 µM |
| CC(C)c1ccc(OCc2cccc(C(=O)N/N=C/c3cccnc3)c2)cc1 | 19.4 µM |
| COc1cccc(O)c1CN1CCC(C(=O)Nc2ccc(-c3cccc(C)c3)cc2)CC1 | 11 µM |
| O=C(CCCN1C(=O)S/C(=C\c2ccccc2)C1=O)NNC(=O)c1ccccc1O | 18.7 µM |
| CCNC(=O)c1cc2c(c(-c3cccc(-c4cccc(OC)c4)c3)n1)[C@H](CCO)N([S@@](=O)C(C)(C)C)C2 | 5.13 µM |
| CN(C)c1ccc(C=c2c3ccccc3n3c2c2c([n+]3C)CCCC2)cc1 | 2.82 µM |
| COc1ccc(-c2cc(CNc3nc(NC(C)C)nc4cc(-c5ccccc5)sc34)on2)cc1 | 10 µM |
| COc1ccc(C=C2CCc3ccccc3C2=O)cc1 | 18.9 µM |
| Cc1ccc(S(=O)(=O)N(C)C[C@@H]2Oc3cc(C#Cc4ccncc4)ccc3S(=O)(=O)N([C@@H](C)CO)C[C@H]2C)cc1 | 21.1 µM |
| C/C(=N\NC(=O)c1n[nH]c2c1CCC2)c1cccs1 | 19.3 µM |
| O=c1oc2cc(O)ccc2s1 | 12.5 µM |
| C[C@H](CO)N1C[C@H](C)[C@H](CN(C)Cc2ccc(C(F)(F)F)cc2)Oc2ccc(NC(=O)CCCCCC(=O)Nc3ccccc3N)cc2CC1=O | 7.93 µM |
| C[C@@H]1CN([C@@H](C)CO)C(=O)c2cccc(NS(=O)(=O)c3ccc(Cl)cc3)c2O[C@@H]1CN(C)Cc1ccc(C(=O)Nc2ccccc2N)cc1 | 8.47 µM |
| OC[C@H]1[C@@H](c2ccc(C#CC3CCCC3)cc2)[C@@H]2CN(CCC(F)(F)F)CCCCN12 | 7.53 µM |
| COC(=O)C[C@H]1CC[C@@H](NC(=O)Nc2ccc(C(F)(F)F)cc2)[C@H](CO)O1 | 18.9 µM |
| CN=c1scc(-c2cccs2)n1/N=C/c1ccccc1O | 16.9 µM |
| CCN1/C(=C/C(C)=C/c2sc3ccccc3[n+]2CC)Sc2ccccc21 | 1.36 µM |
| CCCN1C/C(=C/c2ccc3c(c2)OCO3)C(=O)/C(=C/c2ccc3c(c2)OCO3)C1 | 3.77 µM |
| C[C@H](CO)N1C[C@H](C)[C@@H](CN(C)Cc2ccc(C(F)(F)F)cc2)OCCCC[C@H](C)Oc2ccc(NS(=O)(=O)c3ccc(F)cc3)cc2C1=O | 13.4 µM |
